Measurements as given in PMC11684019, “Unveiling the Antimycobacterial Potential of Novel 4-Alkoxyquinolines: Insights into Selectivity, Mechanism of Action, and In Vivo Exposure” (Journal of Medicinal Chemistry, 2024).
≈ marks a conversion by molar mass, not a printed value. Like-named read-outs stand apart in the source and are kept apart here.

What was measured:
Mtb = conditions: cited from earlier work
[1] = test system: M. tuberculosis H37Rv strain; experiment: microbe, parasite or virus in culture; format: cell-based, Mycobacterium tuberculosis
[2] = Aqueous solubility (UHPLC-DAD); conditions: 25 °C, 4 h; for Solubility pH 1.2: 0.1 M HCl solution; for Solubility pH 9.1: 0.1 M NH4HCO3 solution; for Solubility pH 7.4: PBS
[3] = test system: M. tuberculosis strain PT2 (MDR clinical isolate); format: cell-based, Mycobacterium tuberculosis
[4] = test system: M. tuberculosis strain PT20 (MDR clinical isolate); format: cell-based, Mycobacterium tuberculosis
[5] = test system: M. tuberculosis strain PT12 (MDR clinical isolate); format: cell-based, Mycobacterium tuberculosis
[6] = test system: M. tuberculosis H37Rv strain in murine macrophage RAW 264.7 cells; format: cell-based, Mycobacterium tuberculosis
HepG2 cells [7] = conditions: read-out: CC50 HepG2; Neutral Red method, 72 h
HepG2 cells [8] = conditions: read-out: CC50 HepG2; MTT method, 72 h
Vero cells [9] = conditions: read-out: CC50 Vero; Neutral Red method, 72 h
Vero cells [10] = conditions: read-out: CC50 Vero; MTT method, 72 h
in vitro = conditions: PAMPA, pH 7.4
[11] = M. tuberculosis H37Rv, resazurin-based assay

In the case of `COc1ccc2nc(C)cc(OCC(=O)Nc3ccc4ccccc4c3)c2c1` [compound 2], the “MIC (Mtb)” value (Mtb) is listed as 0.05 µM (≈ 0.0186 µg/mL).

Compound `COc1ccc2nc(C)cc(OCCCNc3ccc(C)cc3)c2c1` [8h, N-(3-((6-methoxy-2-methylquinolin-4-yl)oxy)propyl)-4-methylaniline] has an MIC [1, 11] of 0.24 µM (≈ 0.0807 µg/mL).

`CCc1cc(OCCCNc2ccc(Cl)cc2)c2cc(Br)ccc2n1` [8u, N-(3-((6-bromo-2-ethylquinolin-4-yl)oxy)propyl)-4-chloroaniline] gave an MIC [1, 11] of 0.19 µM (≈ 0.0798 µg/mL).

In the case of `COc1ccc2nc(C)cc(OCc3ccc(Cl)c(Cl)c3)c2c1` [compound 4], the “MIC (Mtb)” value (Mtb) is given as 0.3 µM (≈ 0.104 µg/mL).

For `COc1ccc2nc(C)cc(OCC(=O)Nc3ccccc3OC)c2c1` [compound 1], the “MIC (Mtb)” value (Mtb) is listed as 0.44 µM (≈ 0.155 µg/mL).

In the case of `CCCc1ccc(NC(=O)COc2cc(C)nc3ccc(OC)cc23)cc1` [compound 3], the “MIC (Mtb)” value (Mtb) is given as 0.05 µM (≈ 0.0182 µg/mL).

In the case of `CCc1cc(OCCCNc2ccc(Br)cc2)c2cc(Cl)ccc2n1` [8p, 4-Bromo-N-(3-((6-chloro-2-ethylquinolin-4-yl)oxy)propyl)aniline], the MIC [1, 11] is reported as 0.38 µM (≈ 0.16 µg/mL).

With “N-(3-((6-Chloro-2-methylquinolin-4-yl)oxy)propyl)-4-ethylaniline [8n]” the “Solubility pH 1.2” value [2] was 200 μM, the “Solubility pH 9.1” value [2] was 0.37 μM and the “Solubility pH 7.4” value [2] was 0.06 μM. The MIC [1, 11] was 0.03 µM, the “MIC PT2” value [3] was less than 0.06 µM and the “MIC PT20” value [4] was less than 0.06 µM. The “MIC PT12” value [5] was less than 0.06 µM.

`CCc1cc(OCCCNc2ccc(Br)cc2)c2cc(Br)ccc2n1` [8v, 4-Bromo-N-(3-((6-bromo-2-ethylquinolin-4-yl)oxy)propyl)aniline] gave an MIC [1, 11] of 0.34 µM (≈ 0.158 µg/mL).

Work on `COc1ccc2nc(C)cc(OCCCNc3ccc(C(C)C)cc3)c2c1` [8j, 4-Isopropyl-N-(3-((6-methoxy-2-methylquinolin-4-yl)oxy)propyl)aniline] yielded an MIC [1, 11] of 0.11 µM (≈ 0.0401 µg/mL).

For `NNC(=O)c1ccncc1` [INH, isoniazid, reference compound], the “Kind of effect on intracellular growth of M. tuberculosis H37Rv” value [6] was “bactericidal effect”, the “Log10 CFU/well (Mean ± SD)” value [6] was 2.25 ± 0.15 ^c^, ^d Log10 CFU/well and the “Log10 CFU/well (Mean ± SD)” value ([6]; listed as isoniazid) was 2.25. For the same compound, the MIC ([1]; Mycobacterium tuberculosis, H37RV) was 2.3 µM (≈ 0.315 µg/mL).

For `COc1ccc2nc(C)cc(OCCCNc3ccc(C(F)(F)F)cc3)c2c1` [8f, N-(3-((6-methoxy-2-methylquinolin-4-yl)oxy)propyl)-4-(trifluoromethyl)aniline], the MIC [1, 11] was 3.20 µM (≈ 1.25 µg/mL).

`Cc1cc(OCCCNc2ccc(Cl)cc2)c2cc(Cl)ccc2n1` [8k, 4-Chloro-N-(3-((6-chloro-2-methylquinolin-4-yl)oxy)propyl)aniline] gave an MIC [1, 11] of 0.22 µM (≈ 0.0795 µg/mL).

`Cc1cc(OCCCNc2ccc(Br)cc2)c2cc(Br)ccc2n1` [8s, 4-Bromo-N-(3-((6-bromo-2-methylquinolin-4-yl)oxy)propyl)aniline] showed an MIC [1, 11] of 0.35 µM (≈ 0.158 µg/mL).

With “4-Ethyl-N-(3-((6-methoxy-2-methylquinolin-4-yl)oxy)propyl)aniline [8i]” the MIC [1, 11] was 0.06 µM, the CC50 (HepG2 cells [7]) was 8.1 µM and the “MIC PT2” value [3] was less than 0.06 µM. For the same compound, the CC50 (HepG2 cells [8]) was 0.3 µM, the CC50 (Vero cells [9]) was 4.2 µM and the “MIC PT20” value [4] was less than 0.06 µM. For the same compound, the CC50 (Vero cells [10]) was less than 1 µM and the “MIC PT12” value [5] was less than 0.06 µM.

For `COc1ccc2nc(C)cc(OCCCNc3ccccc3)c2c1` [8a, N-(3-((6-methoxy-2-methylquinolin-4-yl)oxy)propyl)aniline], the MIC [1, 11] was 0.25 µM (≈ 0.0806 µg/mL).

With “N-(3-((6-bromo-2-ethylquinolin-4-yl)oxy)propyl)-4-ethylaniline [8w]” the MIC [1, 11] was 0.10 µM, the CC50 (HepG2 cells [7]) was 8.3 µM and the “MIC PT2” value [3] was less than 0.05 µM. The CC50 (HepG2 cells [8]) was greater than 20 µM, the CC50 (Vero cells [9]) was 9.1 µM and the “MIC PT20” value [4] was less than 0.05 µM. The CC50 (Vero cells [10]) was greater than 20 µM and the “MIC PT12” value [5] was less than 0.05 µM.

In the case of `COc1ccc2nc(C)cc(OCC(=O)c3cccc(Cl)c3)c2c1` [compound 5], the “MIC (Mtb)” value (Mtb) is listed as 1.8 µM (≈ 0.615 µg/mL).

For `Cc1cc(OCCCNc2ccc(OC(F)(F)F)cc2)c2cc(Cl)ccc2n1` [8m, N-(3-((6-Chloro-2-methylquinolin-4-yl)oxy)propyl)-4-(trifluoromethoxy)aniline], the MIC [1, 11] was 0.19 µM (≈ 0.0781 µg/mL).

With “4-Bromo-N-(3-((6-methoxy-2-methylquinolin-4-yl)oxy)propyl)aniline [8d]” the MIC [1, 11] was 0.10 µM, the CC50 (HepG2 cells [7]) was 16.8 µM and the “MIC PT2” value [3] was less than 0.05 µM. The CC50 (HepG2 cells [8]) was 15.3 µM, the CC50 (Vero cells [9]) was 12.8 µM and the “MIC PT20” value [4] was less than 0.05 µM. The CC50 (Vero cells [10]) was greater than 20 µM and the “MIC PT12” value [5] was less than 0.05 µM.

For “4-Iodo-N-(3-((6-methoxy-2-methylquinolin-4-yl)oxy)propyl)aniline [8e]”, the MIC [1, 11] was 0.09 µM, the CC50 (HepG2 cells [7]) was 12.8 µM and the “MIC PT2” value [3] was less than 0.05 µM. The CC50 (HepG2 cells [8]) was 10.6 µM, the CC50 (Vero cells [9]) was 7.5 µM and the “MIC PT20” value [4] was less than 0.05 µM. The CC50 (Vero cells [10]) was 8.2 µM and the “MIC PT12” value [5] was less than 0.05 µM.

Work on `CCc1ccc(NCCCOc2cc(CC)nc3ccc(Cl)cc23)cc1` [8q, N-(3-((6-chloro-2-ethylquinolin-4-yl)oxy)propyl)-4-ethylaniline] yielded an MIC [1, 11] of 0.22 µM (≈ 0.0812 µg/mL).

Compound `COc1ccc2nc(C)cc(OCCCNc3ccc(OC(F)(F)F)cc3)c2c1` [8g, N-(3-((6-methoxy-2-methylquinolin-4-yl)oxy)propyl)-4-(trifluoromethoxy)aniline] has an MIC [1, 11] of 0.20 µM (≈ 0.0813 µg/mL).

For `CCc1cc(OCCCNc2ccc(Cl)cc2)c2cc(Cl)ccc2n1` [8o, 4-Chloro-N-(3-((6-chloro-2-ethylquinolin-4-yl)oxy)propyl)aniline], the MIC [1, 11] was 0.11 µM (≈ 0.0413 µg/mL).

Work on `COc1ccc2nc(C)cc(OCCCNc3ccc(F)cc3)c2c1` [8b, 4-Fluoro-N-(3-((6-methoxy-2-methylquinolin-4-yl)oxy)propyl)aniline] yielded an MIC [1, 11] of 0.47 µM (≈ 0.16 µg/mL).

`COc1ccc2nc(C)cc(OCCCNc3ccc(Cl)cc3)c2c1` [8c, 4-Chloro-N-(3-((6-methoxy-2-methylquinolin-4-yl)oxy)propyl)aniline] showed an MIC [1, 11] of 0.22 µM (≈ 0.0785 µg/mL).

In the case of `CCc1nc2ccc(Cl)cn2c1C(=O)NCc1ccc(N2CCC(c3ccc(OC(F)(F)F)cc3)CC2)cc1` [Q203, telacebec, reference compound], the MIC ([1]; Mycobacterium tuberculosis, M. tuberculosis H37Rv, resazurin-based assay) is reported as 0.009 µM (≈ 0.00501 µg/mL).

With `Cc1cc(OCCCNc2ccc(Cl)cc2)c2cc(Br)ccc2n1` [8r, N-(3-((6-bromo-2-methylquinolin-4-yl)oxy)propyl)-4-chloroaniline] the “Solubility pH 1.2” value [2] was >2,470 μM, the “Solubility pH 9.1” value [2] was 57.18 μM and the “Solubility pH 7.4” value [2] was 15.0 μM. For the same compound, the MIC [1, 11] was 0.10 µM (≈ 0.0406 µg/mL), the CC50 (HepG2 cells [7]) was greater than 20 µM and the “MIC PT2” value [3] was less than 0.05 µM. For the same compound, the CC50 (HepG2 cells [8]) was greater than 20 µM, the CC50 (Vero cells [9]) was 11.2 µM and the “MIC PT20” value [4] was less than 0.05 µM. The CC50 (Vero cells [10]) was 19.8 µM and the “MIC PT12” value [5] was less than 0.05 µM.

In the case of `C=CCc1ccccc1OCC(O)CNC(C)C` (stereo not shown) [alprenolol], the Papp at 5 h, 10 µM (in vitro) is reported as 4.1 ×10⁻⁶ cm/s.
